# Reference: PMC9268428, “Determination of the Highly Sensitive Carboxyl-Graphene Oxide-Based Planar Optical Waveguide Localized Surface Plasmon Resonance Biosensor” (Nanomaterials, 2022)
# Counter-ions that a name gives are not always drawn.
# Molecular target: T1, streptavidin (Streptomyces avidinii, UniProt P22629)
# T1 construct: free analyte in PBS
# Assay: localized surface plasmon resonance on graphene-oxide optical waveguide, affinity constant from ka/kd
# Type: binding
# Conditions: read-out: Kf (converted)
# From the text: localized surface plasmon resonance on graphene-oxide optical waveguide, affinity constant from ka/kd on streptavidin | ka and kd of biotin binding with streptavidin were estimated to be
# T1 sequence (P22629 25-183): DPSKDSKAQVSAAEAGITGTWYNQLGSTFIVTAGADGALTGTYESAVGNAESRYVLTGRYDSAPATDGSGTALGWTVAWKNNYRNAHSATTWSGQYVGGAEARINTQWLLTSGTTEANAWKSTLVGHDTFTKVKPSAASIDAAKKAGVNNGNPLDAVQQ
compound,measurement,value
NCCCNC(=O)CCCC[C@@H]1SC[C@@H]2NC(=O)N[C@@H]21 [N-(+)-biotinyl-3-aminopropylammonium trifluoroacetate],Kd,0.137 nM
